The source of these data is paper PMC9604400, “Synthesis, Anticancer and Antitubercular Properties of New Chalcones and Their Nitrogen-Containing Five-Membered Heterocyclic Hybrids Bearing Sulfonamide Moiety” (International Journal of Molecular Sciences, 2022).

Converted amounts (≈) assume the structure as drawn. Marks after values point to notes of the source that are not given here.

Holding throughout (test): microbe, parasite or virus in culture
In assay [1] the test system is M. tuberculosis Orphan strain. It is filed as cell-based. Particulars: Mycobacterium tuberculosis.
For another assay, the system named is M. tuberculosis Haarlem. It counts as cell-based. The settings on record: Mycobacterium tuberculosis.
Assay [2] concerns M. tuberculosis LAM9 SIT 42. It is filed as cell-based, Mycobacterium tuberculosis.
Another assay concerns M. tuberculosis Beijing. It counts as cell-based. Particulars: Mycobacterium tuberculosis.
Assay [3] relates to M. tuberculosis ATCC 35822. It counts as cell-based. Particulars: Mycobacterium tuberculosis, ATCC35822.
Assay [4] has as its system M. tuberculosis ATCC 35838. It is filed as cell-based, Mycobacterium tuberculosis.
The mark [5] stands for this setting: Mycobacterium tuberculosis, LAM9SIT42, c. M. tuberculosis LAM9 SIT 42.
The mark [6] stands for this setting: Mycobacterium tuberculosis, ATCC35838, f. M. tuberculosis ATCC 35838 (rifampicin-resistant).
[7] abbreviates: f. M. tuberculosis ATCC 35838 (rifampicin-resistant).

In the case of `COc1cc(OC)c(S(N)(=O)=O)cc1C(=O)C=Cc1ccccc1` [Compound 17a, 5-Cinnamoyl-2,4-dimethoxybenzenesulfonamide], the MIC in assay [1] is 29 µM (≈ 10.1 µg/mL); in the assay on M. tuberculosis Haarlem, greater than 29 µM; in assay [2] (setting [5]), greater than 29 µM; in the assay with M. tuberculosis Beijing, 29 µM (≈ 10.1 µg/mL); in assay [3], greater than 29 µM; in assay [4] (setting [6]), 29 µM (≈ 10.1 µg/mL).
Turning to `COc1cc(OC)c(S(N)(=O)=O)cc1C(=O)/C=C/c1ccc2c(c1)OCO2` [Compound 17f, (E)-5-(3-(Benzo[d][1,3]dioxol-5-yl)acryloyl)-2,4-dimethoxybenzenesulfonamide], the MIC in assay [1] is greater than 2 µM; in the assay on M. tuberculosis Haarlem, greater than 2 µM; in assay [2] (setting [5]), greater than 2 µM; against M. tuberculosis Beijing it was greater than 2 µM; in assay [3], greater than 25 µM; in assay [4] (setting [6]), greater than 25 µM.
For the compound `COc1ccc(C(=O)C=Cc2ccccc2)cc1S(=O)(=O)NNC(=O)c1ccncc1` [Compound 19a, 5-Cinnamoyl-N’-isonicotinoyl-2-methoxybenzenesulfonohydrazide], the MIC was greater than 23 µM in assay [1]; greater than 23 µM with M. tuberculosis Haarlem; 23 µM (≈ 10.1 µg/mL) in assay [2] (setting [5]); 23 µM (≈ 10.1 µg/mL) against M. tuberculosis Beijing; greater than 23 µM in assay [3]; less than 12 µM in assay [4] (setting [6]). In addition, the MIC in assay [4] (setting [7]) was less than 11 µM.
On to `COc1ccc(/C=C/C(=O)c2ccc(OC)c(S(=O)(=O)NNC(=O)c3ccncc3)c2)cc1` [Compound 19d, (E)-N’-Isonicotinoyl-2-methoxy-5-(3-(4-methoxyphenyl)acryloyl)benzenesulfonohydrazide], for which the MIC is 21 µM (≈ 9.82 µg/mL) in assay [1]; greater than 21 µM against M. tuberculosis Haarlem; 21 µM (≈ 9.82 µg/mL) in assay [2] (setting [5]); 21 µM (≈ 9.82 µg/mL) against M. tuberculosis Beijing; greater than 21 µM in assay [3]; 21 µM (≈ 9.82 µg/mL) in assay [4] (setting [6]).
As to `COc1cc(OC)c(S(=O)(=O)NNC(=O)c2ccncc2)cc1C(=O)C=Cc1ccccc1` [Compound 20a, 5-Cinnamoyl-N’-isonicotinoyl-2,4-dimethoxybenzenesulfonohydrazide], the MIC in assay [1] was greater than 21 µM; against M. tuberculosis Haarlem it was greater than 21 µM; in assay [2] (setting [5]), 21 µM (≈ 9.82 µg/mL); against M. tuberculosis Beijing, less than 11 µM; in assay [3], greater than 21 µM; in assay [4] (setting [6]) it was less than 12 µM. Moreover, the MIC in assay [4] (setting [7]) is listed as <11 * µM.
Take `COc1ccc(/C=C/C(=O)c2cc(S(=O)(=O)NNC(=O)c3ccncc3)c(OC)cc2OC)cc1` [Compound 20d, (E)-N’-Isonicotinoyl-2,4-dimethoxy-5-(3-(4-methoxyphenyl)acryloyl)benzenesulfonohydrazide]: the MIC in assay [1] was greater than 20 µM; in the assay with M. tuberculosis Haarlem it was greater than 20 µM; in assay [2] (setting [5]) it was greater than 20 µM; in the assay with M. tuberculosis Beijing, greater than 20 µM; in assay [3] it was greater than 20 µM; in assay [4] (setting [6]), 20 µM (≈ 9.95 µg/mL).
`COc1cc(OC)c(S(=O)(=O)NNC(=O)c2ccncc2)cc1C(=O)/C=C/c1cc(OC)c(OC)c(OC)c1` [Compound 20e, (E)-N’-Isonicotinoyl-2,4-dimethoxy-5-(3-(3,4,5-trimethoxyphenyl)acryloyl)benzenesulfonohydrazide]: the MIC in assay [1] is greater than 18 µM; with M. tuberculosis Haarlem, greater than 18 µM; in assay [2] (setting [5]), 8.97 µM (≈ 5 µg/mL); in assay [2] (c. M. tuberculosis LAM9 SIT 42) it was <9.0 * µM; in the assay with M. tuberculosis Beijing, less than 9 µM; in assay [3] it was greater than 18 µM. The MIC was less than 12 µM in assay [4] (setting [6]) and <9.0 * µM in assay [4] (setting [7]).
Consider `COc1cc(OC)c(S(=O)(=O)NNC(=O)c2ccncc2)cc1C(=O)/C=C/c1ccc2c(c1)OCO2` [Compound 20f, (E)-5-(3-(Benzo[d][1,3]dioxol-5-yl)acryloyl)-N’-isonicotinoyl-2,4-dimethoxybenzenesulfonohydrazide], for which the MIC was greater than 20 µM in assay [1]; greater than 20 µM against M. tuberculosis Haarlem; 9.77 µM (≈ 5 µg/mL) in assay [2] (setting [5]); less than 10 µM in assay [2] (c. M. tuberculosis LAM9 SIT 42); 20 µM (≈ 10.2 µg/mL) in the assay with M. tuberculosis Beijing; greater than 20 µM in assay [3]. For the same compound, the MIC in assay [4] (setting [6]) is less than 12 µM; in assay [4] (setting [7]), <10 * µM.
For `C[C@H]1COc2c(N3CCN(C)CC3)c(F)cc3c(=O)c(C(=O)O)cn1c23` [Levofloxacin, levofloxacin, reference compound], the MIC (in assay [1]; with M. tuberculosis Haarlem; in assay [2] (setting [5]); against M. tuberculosis Beijing; in assay [3]; in assay [4] (setting [6])) was 2.8 µM (≈ 1.01 µg/mL) throughout.
